Experiments:
[1] = system: C57BL/6J mice; assay: Body weight, food intake and visceral fat-pad weights of mice fed test diets for 10 weeks; assay type: in vivo
Excerpt: (§1) The obesity-inducing control diet used in the test was high-fat diet (HFD: 40% fat calorie, 17 g lard+3% corn oil/100 g diet). Diets supplemented with nonenal (nonenal-supplemented high fat diet, NED) had the same composition as HFD, except that nonenal was included at 0.2% (see Table 1). The normal diet group (Chow) was fed with commercially available rodent chow. Nonenal was purchased from Sigma-Aldrich.
(§2) 5-week-old male C57BL/6J mice (Orient, Korea) were accustomed to the laboratory environment for 1 week while feeding solid feed. Then, they were randomly divided into normal diet, high-fat diet and test groups and bred for a total of 10 weeks. The diet was given between 10 and 11 a.m. every day together with water. Food intake was measured every day and body weight was measured once a week. In order to avoid transient body weight increase after feed intake, body weight was measured 2 hours after removing the feed. After fasting the test animal for at least 12 hours and anesthetizing with diethyl ether, blood, liver and visceral fat (epididymal fat, perirenal fat, mesenteric fat and retroperitoneal fat) were taken and weighed after washing with 0.1 M PBS (pH 7.4). Blood taken from the abdominal aorta was centrifuged at 1000×g for 15 minutes for the separation of plasma.

[2] = system: C57BL/6J mice; assay: Biochemical analysis of blood (plasma lipids, glucose, ALT, AST) of mice fed test diets; assay type: in vivo; conditions: 10 weeks
Excerpt: as §1, §2
After 10 weeks of breeding, total cholesterol, triglyceride and glucose levels in the plasma and lipid levels in the liver tissue were measured as follows. Total cholesterol, triglyceride, free fatty acid and glucose levels in the plasma were measured twice for each using a commercially available kit (Bio Clinical System). The activity of ALT (alanine aminotransferase) and AST (aspartate aminotransferase) used as liver function indicator were measured twice for each using a commercially available kit (Bio Clinical System, Korea).

[3] = system: C57BL/6J mice; assay: Analysis of lipid level in liver tissues of mice fed test diets; assay type: in vivo; conditions: 0.2% nonenal in high-fat diet, 10 weeks, as compared to HFD
Excerpt: as §1, §2
Lipids were extracted from the liver tissue according to Folch et al.'s method Folch J et al., J Biol. Chem. 226: 497-509 (1957)). After adding 1 mL of distilled water to 0.25 g of liver tissue, the liver tissue was homogenized using a Polytron homogenizer (IKA-Werke GmbH & Co., Ultra-Turrax, Staufen, Germany). After adding 5 mL of chloroform:methanol solution (2:1, v/v) to the homogenate and mixing well, the mixture was centrifuged at 1000×g for 10 minutes. After adding 2 mL of chloroform:methanol solution (2:1, v/v) again to the supernatant, the same procedure was repeated to completely separate the lipid components of the liver. […] The dried lipids were dissolved in 1 mL of methanol and then analyzed. […]

[4] = system: C/EBPα; assay: RT-PCR analysis of visceral fat tissues: C/EBPα gene expression; assay type: in vivo, mice; conditions: nonenal supplemented to the HFD vs HFD; to levels similar for the Chow group
Excerpt: as §1
(§3) 5-week-old male C57BL/6J mice (Orient, Korea) were accustomed to the laboratory environment for 1 week while feeding solid feed. Then, they were randomly divided into normal diet, high-fat diet and test groups and bred for a total of 10 weeks. The diet was given between 10 and 11 a.m. every day together with water. Food intake was measured every day and body weight was measured once a week. In order to avoid transient body weight increase after feed intake, body weight was measured 2 hours after removing the feed. […]
(§4) After adding 1 mL of Trizol agent per 0.1 g of visceral fat tissues, the mixture was homogenized and centrifuged at 12,000×g for 10 min at 4° C. […] The RNA sample concentration was measured at a wavelength of 260 nm and 280 nm using a UV/VIS spectrophotometer (Beckman coulter, DU730) and the integrity of RNA sample was verified by agarose gel electrophoresis. […]

[5] = system: PPARγ2; assay: RT-PCR analysis of visceral fat tissues: PPARγ2 gene expression; assay type: in vivo, mice; conditions: nonenal supplemented to the HFD vs HFD; to levels similar for the Chow group
Excerpt: as §1, §3, §4

[6] = system: aP2; assay: RT-PCR analysis of visceral fat tissues: aP2 gene expression; assay type: in vivo, mice; conditions: nonenal supplemented to the HFD vs HFD; to levels similar for the Chow group
Excerpt: as §1, §3, §4

[7] = system: TNF-α; assay: RT-PCR analysis of visceral fat tissues: TNF-α gene expression; assay type: in vivo, mice; conditions: feeding nonenal in HFD vs HFD
Excerpt: as §1, §3, §4

[8] = system: IL-6; assay: RT-PCR analysis of visceral fat tissues: IL-6 gene expression; assay type: in vivo, mice; conditions: feeding nonenal in HFD vs HFD
Excerpt: as §1, §3, §4

[9] = system: rats; conditions: cited from earlier work
[10] = system: microbial growth; conditions: cited from earlier work
[11] = 0.2% nonenal in high-fat diet, as compared to HFD
[12] = 0.2% nonenal in high-fat diet, as compared to HFD group

## CCCCCC/C=C/C=O [nonenal, trans-2-nonenal]
[1]; 0.2% nonenal in high-fat diet (NED), as compared to HFD
  decrease of body weight gain: 49%
[1]; [11]
  weight of epididymal fat-pad: significantly reduced
  weight of mesenteric fat-pad: significantly reduced
  weight of perirenal fat-pad: significantly reduced
  weight of retroperitoneal fat-pad: significantly reduced
[1]; NED group vs HFD group
  reduction of total visceral fat weight: 59%
[2]; [11]
  reduction of fasting blood sugar level: 31%
[2]; [12]
  lowering of plasma LDL+VLDL cholesterol level: 20%
  lowering of plasma free fatty acid level: 41%
  lowering of plasma total cholesterol level: 19%
  lowering of plasma triglyceride level: 37%
[2]; NED group vs HFD group
  decrease of plasma activity of ALT: 28%
  decrease of plasma activity of AST: 31%
[3]
  decrease of cholesterol level in liver tissue: 75%
  decrease of free fatty acid level in liver tissue: 74%
  decrease of triglyceride level in liver tissue: 78%
[4]
  expression of C/EBPα gene (mRNA) in visceral fat tissues: significantly decreased
[5]
  expression of PPARγ2 gene (mRNA) in visceral fat tissues: significantly decreased
[6]
  expression of aP2 gene (mRNA) in visceral fat tissues: significantly decreased
[7]
  HFD-induced elevation in the expression of TNF-α in visceral fat tissues: significantly reversed
[8]
  HFD-induced elevation in the expression of IL-6 in visceral fat tissues: significantly reversed
[9]
  LD50: more than 5,000 mg/kg
[10]
  microbial growth inhibitory effects: microbial growth inhibitory effects

From patent US8741964B2, “Uses of nonenal” (Industry-Academic Cooperation Foundation, Yonsei University, priority 2011, dated 2014)
